Assay results taken from patent publication US20040115160A1, “Quaternary ammonium esters for disinfection and preservation” (priority 2002, published 2004).

Tested on: Acanthamoeba polyphaga strain Ros cysts
Experiment: Acanthamoeba contact lens disinfectant challenge test assay
Type: cell-based
Settings: 25 ppm
Procedure: Acanthamoeba polyphaga strain Ros were used in this study. Trophozoites were maintained at 30° C. in an axenic broth medium composed of 20.0 g Biosate™ (Becton Dickinson, United Kingdom), 5.0 g glucose, 0.3 g KH2PO4, 10 μg vitamin B12 and 15.0 mg L-methionine per litre of deionized water. The pH was adjusted to 6.5-6.6 with 1 M NaOH before autoclaving at 121° C. for 12 minutes. Penicillin and streptomycin were added to a final concentration of 150 μ/ml before use.
Cysts were prepared from trophozoite cultures using the axenic medium supplemented with 50 mM MgCl2. The encystment medium was inoculated with approximately 2×10^5 /ml trophoxoites for culture at 30° C. in a shaking incubator (100 rpm) for 7 days. Cells were enumerated using haemocytometer counting.
The challenge test assay protocol, as described by R. Hughes and S. Kilvington, Comparison of Hydrogen Peroxide Contact Lens Disinfection Systems and Solutions Against Acanthamoeba Polyphaga, Antimicrob. Agents Chemother. 45: 2038-2043, (2001), is set forth in detail below. The number of surviving organisms was calculated as described by L. J. Reed and H. Muench, A Simple Method for Estimating Fifty Percent Endpoints, Am. J. Hyg., 27: 493-497, (1938). Statistical analysis of the data was by One Way Analysis Of Variance (ANOVA).
1. Fifty ml polypropylene centrifuge tubes were aged overnight with 15 ml of disinfectant solution, i.e., ReNue™ 02 (Bausch & Lomb, Rochester, N.Y.). The tubes were then drained, the disinfectant solution discarded, and refilled with 10 ml of fresh disinfectant solution for testing.
2. To a flat-bottomed, 96 well microtitre plate having 8 columns labelled “A” through “H”, 180 μl of neutralizer, i.e., 0.1 percent Tween™ 80 (Baker, Inc., Phillipsburg, N.J.) in one-quarter strength Ringer's solution for biguanide based disinfectants, was added to the outer wells of columns A and H. 180 μl of one-quarter strength Ringer's solution was then added to the remaining inner wells of columns B through G.
3. Amoebae were adjusted to 5×10^6 /ml in one-quarter strength Ringer's solution and 100 μl (5×10^5) was added to 10 ml of disinfectant (5×10^4 /ml) or saline control.
4. At time intervals of 0, 1, 2, 3, 4, 6 and 24 hours:
i. vortexed tubes 5 seconds;
ii. in quadruplet, removed 20 μl (1000 cells) and added to neutralizer wells for the given time-point (i.e., column A, rows 9-12) and made serial 10-fold dilutions across the microtitre plate (i.e., to column D, rows 9-12); and
iii. repeated for each time point.
5. One drop of live E. coli from 3 ml pastette (25 μl of approximately 5×10^7 bacteria/ml) was then added to each well.
6. The plate was then incubated at 32° C. for up to 7 days.
7. The plate was inspected daily for 7 days for the presence of amoebal growth, either trophozoite replication or excystment and trophozoite replication, in the wells.
8. The number of surviving organisms was then estimated at each time interval by Reed and Muench computation and set forth below in Table 3.

`CCCCCCCCCCCCCC(=O)OCCC[N+](C)(C)Cc1ccccc1` [Compound 1, N-myristoyloxypropyl-N-benzyl-N,N-dimethylammonium chloride] was tested, and the “Amoebae Log Kill, Cysts” value (1 Hr.) was 3.30 Log and the “Amoebae Log Kill, Cysts” value (4 Hr.) was 3.30 Log.
